A word on the IC50: it is the concentration at which inhibition is half-maximal.

Results on five molecules are retold here after US4992455A, “Thiazolidin-4-one derivatives useful for treating diseases caused by platelet activating factor” (Sumitomo Pharmaceuticals Company, Limited, priority 1987, dated 1991).

Experiment [1] has as its system PAF-induced rabbit platelet aggregation. Briefly: Inhibition of PAF-induced rabbit platelet aggregation (in vitro, platelet-rich plasma). The settings on record: Oryctolagus cuniculus, rabbit PRP, 37° C., final PAF concentration 0.005 μ1/ml [sic]. The class given is cell-based. On the procedure:
(§1) The inhibition of PAF-induced platelet aggregation was examined by using a platelet-rich plasma (PRP) of rabbit according to the method of Mustard et al. [J.F. Mustard et al., J. Lab. Clin. Med., 64, 548 (1964)], which is an improvement of the method of Born [G.V.R. Born, J. Physiol., London, 162, 67 (1962)]. That is, 80-100 ml of blood per animal was collected from carotid arteries of male rabbits of the Japanese white breed without anesthesia into a polyethylene vessel containing 1/10 the volume of a 3.8% sodium citrate solution. A portion (about 3 ml) of the collected blood was centrifuged at a high speed (11,000 rpm) for 60 seconds, giving a platelet-poor plasma (PPP) as supernatant. The remainder of the blood was centrifuged at a low speed (1000 rpm) for 10 minutes, giving a platelet-rich plasma (PRP) as supernatant.
(§2) The degree of platelet aggregation was determined by nephelometry with an aggregometer (Hematracer, Niko Bioscience Co.) while stirring the PRP at 1000 rpm at 37° C. The platelet aggregation activity was expressed in terms of the light transmittance (%), the value of PRP being taken as 0% and the value of PPP as 100%. A portion (0.2 ml) of the PRP was placed in a glass cuvette containing a silicone-treated stirring iron rod, and 2 µl of dimethylsulfoxide was added. AFter 2 minutes, PAF dissolved in 0.25% BSA physiological saline was added to give a final PAF concentration of 0.005 μ1/ml, and the maximum aggregation was determined. To examine the inhibitory activity of test compounds on the platelet aggregation caused by PAF, 2 µl of a dimethylsulfoxide solution of each test compound was added in place of the dimethylsulfoxide. The percentage inhibition by the test compound of PAF-induced platelet aggregation was calculated according to the following equation and the value of IC50 was determined. [formula]

Experiment [2] has as its system PAF-induced blood concentration. Put plainly: Test in vivo for inhibition of PAF-induced blood concentration. The conditions noted are these: guinea pigs, dose 30 mg/kg iv, PAF iv 2 min later. The protocol: Guinea pigs under anesthesia with urethane (6.25 mg/kg injected into the abdominal cavities) were cannulated through carotid arteries and jugular veins. The carotid artery cannulae were used for blood sampling and the jugular vein cannulae for the intravenous injection of test compound and PAF.
Compound No. 27 was suspended in 10% Nikkol® liquid to a concentration of 3 mg/ml, and 1 ml/kg of the resulting suspension was administered through the jugular vein cannulae. Two minutes later, 1 ml/kg of a 0.1 μg/m1 PAF solution was administered through the jugular vein cannulae. Then, blood was sampled at times. The blood samples were each centrifuged at 11,000 rpm for 5 minutes and the hematocrit values were measured to determine the maximum increase (blood concentration) in hematocrit value.
For a control, 0.5% methyl cellulose solution was administered in place of compound No. 27.
The percentage inhibition of the PAF-induced blood concentration by compound No. 27 was calculated according to the following equation: [formula] The found percentage inhibition was 87%.

In experiment [3] the test system is PAF-induced human platelet aggregation. Put plainly: Inhibition of PAF-induced human platelet aggregation (in vitro, human PRP). Format: cell-based. The protocol: as §1, §2
The inhibition of PAF-induced platelet aggregation was tested by using human PRP. The test was conducted according to the procedure of the above case of rabbit, thereby evaluating the percentages inhibition and IC50 values of test compounds at final PAF concentrations of 0.3 μM and 1 μM.

Experiment [4] deals with fatal effect of PAF on mice. Put plainly: Test for inhibition of fatal effect of PAF on mice. Format: in vivo, Male ICR mice. The settings on record: 10 mg/kg iv, PAF 10 μg/kg iv, 2 hours after PAF. The protocol:
Male ICR mice (perchased from Charles River Co.) aged 4 weeks were anesthetized by injecting subcutaneously 100 mg/kg of Isomital® soda (sodium amobarbital supplied by Nippon Shinyaku Co., Ltd.). After 18 minutes, the mice were injected with a test compound or a solvent through tail veins. The test compound was dissolved in a 0.2 M phosphate buffer solution to a concentration of 1 mg/ml and 10 ml/kg of this solution was injected (dose of test compound 10 mg/kg). Two minutes after this administration, the mice were injected with 10 μg/kg of PAF through tail veins. The PAF was dissolved in physiological saline containing 0.25% of bovine serum albumin to a concentration of 2 μg/ml, and the mice were injected with 5 ml/kg of this solution.
After PAF administration, the mice were observed and the survival rate of mice 2 hours later was determined.

Converted amounts (≈) assume the structure as drawn. Structures can show the parent of a compound that is named as a salt.

`C[C@H]1S[C@H](c2cccnc2)N(C)C1=O` (relative stereo) [compound 3, 3,5-Dimethyl-2-(3-pyridyl)thiazolidin-4-one]: the IC50 in experiment [1] stood at 3.5 µg/mL (≈ 16.8 µM); in experiment [3] (PAF concentration 0.3 μM), 6 µg/mL (≈ 28.8 µM). In experiment [2], the “Percentage inhibition of PAF-induced blood concentration (maximum increase in hematocrit value)” value came out at 58%.
`CCCCCCCCC[C@H]1S[C@@H](c2cccnc2)N(CCN(C)C)C1=O` (relative stereo) [compound 28, 3-(2-Dimethylaminoethyl)-5-(n-nonyl)-2-(3-pyridyl)thiazolidin-4-one]: the values for the half-maximal inhibitory concentration (IC50) in experiment [1], in experiment [3] (PAF concentration 0.3 μM) and in experiment [3] (PAF concentration 1 μM) were 0.2 µg/mL (≈ 0.53 µM), 1.2 µg/mL (≈ 3.18 µM) and 2.5 µg/mL (≈ 6.62 µM), respectively. Also, the “Percentage inhibition of PAF-induced blood concentration (maximum increase in hematocrit value)” value in experiment [2] is recorded as 92%.
In experiment [4], `CCCCCC[C@H]1S[C@H](c2cccnc2)N(CCN(C)C)C1=O` (relative stereo) [compound 174] had a Survival rate of 80%.
On to `CCCCCCC[C@H]1S[C@H](c2cccnc2)N(CCN(C)C)C1=O` (relative stereo) [compound 175], for which the Survival rate in experiment [4] was found to be 60%.
In experiment [4], `C[C@H]1S[C@@H](c2cccnc2)N(C)C1=O` (relative stereo) [compound 182, 3,5-dimethyl-2-(3-pyridyl)thiazolidin-4-one hydrochloride] displayed a Survival rate of 100%.
